{
  "source": "paper PMC8523172",
  "about": "“Structure of mycobacterial CIII2CIV2 respiratory supercomplex bound to the tuberculosis drug candidate telacebec (Q203)” (eLife, 2021)",
  "assay_type_in_all_cases": "biochemical",
  "key": {"[1]": {"target": "T1, CIII2CIV2 supercomplex, subunit QcrB (QP site) (Mycolicibacterium smegmatis, UniProt I7FGS8+I7GD61)", "T1 construct": "purified CIII2CIV2 supercomplex with 3×FLAG tag at the C terminus of QcrB; with QcrA (Rieske subunit) within CIII2CIV2", "experiment": "Clark-type electrode oxygen consumption, purified enzyme turnover ([…] substrate)"}, "[2]": {"target": "T1, CIII2CIV2 supercomplex, subunit QcrB (QP site)", "experiment": "Clark-type electrode oxygen consumption, purified enzyme"}, "[3]": {"target": "T1, CIII2CIV2 supercomplex, subunit QcrB (QP site)", "experiment": "oxygen consumption (DMWH2:O2 oxidoreductase) inhibition of purified enzyme"}},
  "data": [
    {"smiles": "Cc1c(C)c(O)c2ccccc2c1O", "note": "[DMWH2, 2,3-dimethyl-[1,4]naphthohydroquinone]", "values": [
      {"measurement": "Clark-type electrode oxygen consumption, purified enzyme turnover (100 μM substr)", "setting": "[1]", "result": "91 ± 4", "unit": "e^-/s"}
    ]},
    {"smiles": "Cc1cc(O)c2ccccc2c1O", "note": "[menadiol, 2-methyl-[1,4]naphthohydroquinone]", "values": [
      {"measurement": "Clark-type electrode oxygen consumption, purified enzyme", "setting": "[2]", "result": "CIII2CIV2 activity is greater with DMWH2 green curve, than with menadiol brown curve"}
    ]},
    {"smiles": "CCc1nc2ccc(Cl)cn2c1C(=O)NCc1ccc(N2CCC(c3ccc(OC(F)(F)F)cc3)CC2)cc1", "note": "[telacebec]", "values": [
      {"measurement": "IC50", "setting": "[3]", "result": "53 ± 19", "unit": "nM"}
    ]}
  ]
}
